{"source": "patent US8796256B2", "about": "(Janssen Pharmaceutica NV, priority 2010, dated 2014)", "molecular_target": "T1, ERR1 (also known as ERR-α or ERR-1) (Homo sapiens, UniProt P11474)", "T1 sequence (P11474 193-421 limits assumed)": "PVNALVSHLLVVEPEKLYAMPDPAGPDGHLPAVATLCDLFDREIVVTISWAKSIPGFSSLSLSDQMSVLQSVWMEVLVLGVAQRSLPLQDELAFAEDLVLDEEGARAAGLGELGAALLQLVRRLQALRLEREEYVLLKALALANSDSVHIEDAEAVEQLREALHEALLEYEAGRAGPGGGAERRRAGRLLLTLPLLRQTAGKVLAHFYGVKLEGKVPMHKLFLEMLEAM", "experiment": "TR-FRET assay (disruption of co-activator peptide binding to ERR1 LBD)", "format": "biochemical", "settings": "6 nM 6His-ERR1LBD, 6 nM GST-SRC-2 peptide; average of 3 independent experiments", "summary_of_the_method": "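His-tagged ERR1 ligand-binding domain and GST-labelled SRC-2 peptide, each 6 nM, equilibrated at 25° C for 4-18 h in Tris pH 8/Hepes/KCl/DTT/delipidated BSA buffer. Compound-induced loss of co-activator binding read as Eu cryptate→XL665 energy transfer; values from hyperbolic curve fits averaged over 3 independent runs.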", "data": [{"smiles": "CN(C)CCN1C(=O)S/C(=C\\c2ccc3c(ccn3Cc3ccc(C#N)cc3C(F)(F)F)c2)C1=O", "note": "[Compound 246, 4-({5-[(Z)-{3-[2-(Dimethylamino)ethyl]-2,4-dioxo-1,3-thiazolidin-5-ylidene}methyl]-1H-indol-1-yl}methyl)-3-(trifluoromethyl)benzonitrile]", "values": [{"measurement": "EC50", "result": 500, "unit": "nM"}]}, {"smiles": "CN(C)CCCN1C(=O)S/C(=C\\c2ccc3c(ccn3Cc3ccc(C#N)cc3C(F)(F)F)c2)C1=O", "note": "[Compound 247, 4-({5-[(Z)-{3-[3-(Dimethylamino)propyl]-2,4-dioxo-1,3-thiazolidin-5-ylidene}methyl]-1H-indol-1-yl}methyl)-3-(trifluoromethyl)benzonitrile]", "values": [{"measurement": "EC50", "result": 300, "unit": "nM"}]}, {"smiles": "O=C(O)[C@H]1CCCN1CCN1C(=O)S/C(=C\\c2ccc3c(ccn3Cc3ccc(C(F)(F)F)cc3C(F)(F)F)c2)C1=O", "note": "[Compound 248, 1-{2-[(5Z)-5-({1-[2,4-Bis(trifluoromethyl)benzyl]-1H-indol-5-yl}methylidene)-2,4-dioxo-1,3-thiazolidin-3-yl]ethyl}-D-proline]", "values": [{"measurement": "EC50", "result": 290, "unit": "nM"}]}, {"smiles": "O=C1S/C(=C\\c2ccc3c(ccn3Cc3ccc(F)cc3C(F)(F)F)c2)C(=O)N1CCN1CCOCC1", "note": "[Compound 249, (5Z)-5-[(1-{[4-Fluoro-2-(trifluoromethyl)phenyl]methyl}-1H-indol-5-yl)methylidene]-3-(2-morpholin-4-ylethyl)-1,3-thiazolidine-2,4-dione]", "values": [{"measurement": "EC50", "result": 350, "unit": "nM"}]}, {"smiles": "CN(C)CCN1C(=O)S/C(=C\\c2ccc3c(ccn3Cc3ccc(F)cc3C(F)(F)F)c2)C1=O", "note": "[Compound 250, (5Z)-3-[2-(Dimethylamino)ethyl]-5-[(1-{[4-fluoro-2-(trifluoromethyl)phenyl]methyl}-1H-indol-5-yl)methylidene]-1,3-thiazolidine-2,4-dione]", "values": [{"measurement": "EC50", "result": 200, "unit": "nM"}]}, {"smiles": "COCCN1C(=O)S/C(=C\\c2ccc3c(ccn3Cc3ccc(F)cc3C(F)(F)F)c2)C1=O", "note": "[Compound 251, (5Z)-5-[(1-{[4-Fluoro-2-(trifluoromethyl)phenyl]methyl}-1H-indol-5-yl)methylidene]-3-[2-(methyloxy)ethyl]-1,3-thiazolidine-2,4-dione]", "values": [{"measurement": "EC50", "result": 350, "unit": "nM"}]}, {"smiles": "CN(C)CCCN1C(=O)S/C(=C\\c2ccc3c(ccn3Cc3ccc(F)cc3C(F)(F)F)c2)C1=O", "note": "[Compound 252, (5Z)-3-[3-(Dimethylamino)propyl]-5-[(1-{[4-fluoro-2-(trifluoromethyl)phenyl]methyl}-1H-indol-5-yl)methylidene]-1,3-thiazolidine-2,4-dione]", "values": [{"measurement": "EC50", "result": 100, "unit": "nM"}]}, {"smiles": "O=C(O)CN1C(=O)S/C(=C\\c2ccc3c(ccn3Cc3ccc(Cl)cc3C(F)(F)F)c2)C1=O", "note": "[Compound 253, [(5Z)-5-({1-[4-Chloro-2-(trifluoromethyl)benzyl]-1H-indol-5-yl}methylidene)-2,4-dioxo-1,3-thiazolidin-3-yl]acetic acid]", "values": [{"measurement": "EC50", "result": 120, "unit": "nM"}]}, {"smiles": "O=C1S/C(=C\\c2ccc3c(ccn3Cc3ccc(Cl)cc3C(F)(F)F)c2)C(=O)N1CCN1CCOCC1", "note": "[Compound 254, (5Z)-5-({1-[4-Chloro-2-(trifluoromethyl)benzyl]-1H-indol-5-yl}methylidene)-3-(2-morpholin-4-ylethyl)-1,3-thiazolidine-2,4-dione]", "values": [{"measurement": "EC50", "result": 320, "unit": "nM"}]}, {"smiles": "O=C(O)CN1C(=O)S/C(=C\\c2ccc3c(ccn3Cc3ccc(F)cc3C(F)(F)F)c2)C1=O", "note": "[Compound 255, [(5Z)-5-({1-[4-Fluoro-2-(trifluoromethyl)benzyl]-1H-indol-5-yl}methylidene)-2,4-dioxo-1,3-thiazolidin-3-yl]acetic acid]", "values": [{"measurement": "EC50", "result": 1020, "unit": "nM"}]}, {"smiles": "O=C1S/C(=C\\c2ccc3c(ccn3Cc3ccc(Cl)cc3C(F)(F)F)c2)C(=O)N1C[C@H]1COCCN1", "note": "[Compound 256, (5Z)-5-({1-[4-Chloro-2-(trifluoromethyl)benzyl]-1H-indol-5-yl}methylidene)-3-[(3S)-morpholin-3-ylmethyl]-1,3-thiazolidine-2,4-dione]", "values": [{"measurement": "EC50", "result": 110, "unit": "nM"}]}, {"smiles": "N=C(N)NOCCN1C(=O)S/C(=C\\c2ccc3c(ccn3Cc3ccc(Cl)cc3C(F)(F)F)c2)C1=O", "note": "[Compound 257, 1-{2-[(5Z)-5-({1-[4-Chloro-2-(trifluoromethyl)benzyl]-1H-indol-5-yl}methylidene)-2,4-dioxo-1,3-thiazolidin-3-yl]ethoxy}guanidine]", "values": [{"measurement": "EC50", "result": 74, "unit": "nM"}]}, {"smiles": "O=C1S/C(=C\\c2ccc3c(c2)nnn3Cc2ccc(Cl)cc2C(F)(F)F)C(=O)N1CCN1CCCC1", "note": "[Compound 258, (5Z)-5-({1-[4-Chloro-2-(trifluoromethyl)benzyl]-1H-benzotriazol-5-yl}methylidene)-3-(2-pyrrolidin-1-ylmethyl)-1,3-thiazolidine-2,4-dione]", "values": [{"measurement": "EC50", "result": 24, "unit": "nM"}]}, {"smiles": "CCOC(=O)CN1C(=O)S/C(=C\\c2ccc3c(c2)nnn3Cc2ccc(Cl)cc2C(F)(F)F)C1=O", "note": "[Compound 259, Ethyl [(5Z)-5-({1-[4-chloro-2-(trifluoromethyl)benzyl]-1H-benzotriazol-5-yl}methylidene)-2,4-dioxo-1,3-thiazolidin-3-yl]acetate]", "values": [{"measurement": "EC50", "result": 22, "unit": "nM"}]}, {"smiles": "CCOC(=O)C1CCC(N2C(=O)S/C(=C\\c3ccc4c(c3)nnn4Cc3ccc(Cl)cc3C(F)(F)F)C2=O)CC1", "note": "(centres unmarked) [Compound 261, Ethyl 4-[(5Z)-5-({1-[4-chloro-2-(trifluoromethyl)benzyl]-1H-benzotriazol-5-yl}methylidene)-2,4-dioxo-1,3-thiazolidin-3-yl]cyclohexanecarboxylate]", "values": [{"measurement": "EC50", "result": 124, "unit": "nM"}]}, {"smiles": "O=C1S/C(=C\\c2ccc3c(c2)nnn3Cc2ccc(Cl)cc2C(F)(F)F)C(=O)N1Cc1c[nH]nn1", "note": "[Compound 262, (5Z)-5-({1-[4-Chloro-2-(trifluoromethyl)benzyl]-1H-benzotriazol-5-yl}methylidene)-3-(1H-1,2,3-triazol-4-ylmethyl)-1,3-thiazolidine-2,4-dione]", "values": [{"measurement": "EC50", "result": 24, "unit": "nM"}]}, {"smiles": "Cc1nc(CN2C(=O)S/C(=C\\c3ccc4c(c3)nnn4Cc3ccc(Cl)cc3C(F)(F)F)C2=O)n[nH]1", "note": "[Compound 263, (5Z)-5-({1-[4-Chloro-2-(trifluoromethyl)benzyl]-1H-benzotriazol-5-yl}methylidene)-3-[(5-methyl-1H-1,2,4-triazol-3-yl)methyl]-1,3-thiazolidine-2,4-dione]", "values": [{"measurement": "EC50", "result": 16, "unit": "nM"}]}, {"smiles": "O=C1S/C(=C\\c2ccc3c(c2)nnn3Cc2ccc(Cl)cc2C(F)(F)F)C(=O)N1Cc1nc[nH]n1", "note": "[Compound 264, (5Z)-5-({1-[4-Chloro-2-(trifluoromethyl)benzyl]-1H-benzotriazol-5-yl}methylidene)-3-(1H-1,2,4-triazol-3-ylmethyl)-1,3-thiazolidine-2,4-dione]", "values": [{"measurement": "EC50", "result": 16, "unit": "nM"}]}, {"smiles": "O=C1S/C(=C\\c2ccc3c(c2)nnn3Cc2ccc(Cl)cc2C(F)(F)F)C(=O)N1Cc1nnn[nH]1", "note": "[Compound 265, (5Z)-5-({1-[4-Chloro-2-(trifluoromethyl)benzyl]-1H-benzotriazol-5-yl}methylidene)-3-(1H-tetrazol-5-ylmethyl)-1,3-thiazolidine-2,4-dione]", "values": [{"measurement": "EC50", "result": 40, "unit": "nM"}]}, {"smiles": "O=C(O)C1CCC(N2C(=O)S/C(=C\\c3ccc4c(c3)nnn4Cc3ccc(Cl)cc3C(F)(F)F)C2=O)CC1", "note": "(centres unmarked) [Compound 266, 4-[(5Z)-5-({1-[4-Chloro-2-(trifluoromethyl)benzyl]-1H-benzotriazol-5-yl}methylidene)-2,4-dioxo-1,3-thiazolidin-3-yl]cyclohexanecarboxylic acid]", "values": [{"measurement": "EC50", "result": 29, "unit": "nM"}]}, {"smiles": "O=C1S/C(=C\\c2ccc3c(c2)nnn3Cc2ccc(Cl)cc2C(F)(F)F)C(=O)N1C[C@H]1COCCN1", "note": "[Compound 267, (5Z)-5-({1-[4-Chloro-2-(trifluoromethyl)benzyl]-1H-benzotriazol-5-yl}methylidene)-3-[(3S)-morpholin-3-ylmethyl]-1,3-thiazolidine-2,4-dione]", "values": [{"measurement": "EC50", "result": 11, "unit": "nM"}]}, {"smiles": "O=C(CN1C(=O)S/C(=C\\c2ccc3c(c2)nnn3Cc2ccc(Cl)cc2C(F)(F)F)C1=O)NS(=O)(=O)N1CCCC1", "note": "[Compound 268, 2-[(5Z)-5-({1-[4-Chloro-2-(trifluoromethyl)benzyl]-1H-benzotriazol-5-yl}methylidene)-2,4-dioxo-1,3-thiazolidin-3-yl]-N-(pyrrolidin-1-ylsulfonyl)acetamide]", "values": [{"measurement": "EC50", "result": 46, "unit": "nM"}]}, {"smiles": "O=C1S/C(=C\\c2ccc3c(cnn3Cc3ccc(Cl)cc3C(F)(F)F)c2)C(=O)N1CCN1CCN[C@@H](CO)C1", "note": "[Compound 282, (5Z)-5-({1-[4-Chloro-2-(trifluoromethyl)benzyl]-1H-indazol-5-yl}methylidene)-3-{2-[(3R)-3-(hydroxymethyl)piperazin-1-yl]ethyl}-1,3-thiazolidine-2,4-dione]", "values": [{"measurement": "EC50", "result": 361, "unit": "nM"}]}, {"smiles": "O=C1S/C(=C\\c2ccc3c(cnn3Cc3ccc(Cl)cc3C(F)(F)F)c2)C(=O)N1CCN1CCC(C(O)CO)CC1", "note": "(centres unmarked) [Compound 283, (5Z)-5-({1-[4-Chloro-2-(trifluoromethyl)benzyl]-1H-indazol-5-yl}methylidene)-3-{2-[4-(1,2-dihydroxyethyl)piperidin-1-yl]ethyl}-1,3-thiazolidine-2,4-dione]", "values": [{"measurement": "EC50", "result": 527, "unit": "nM"}]}, {"smiles": "N[C@H]1CC[C@H](CN2C(=O)S/C(=C\\c3ccc4c(cnn4Cc4ccc(Cl)cc4C(F)(F)F)c3)C2=O)CC1", "note": "[Compound 284, (5Z)-3-[(trans-4-Aminocyclohexyl)methyl]-5-({1-[4-chloro-2-(trifluoromethyl)benzyl]-1H-indazol-5-yl}methylidene)-1,3-thiazolidine-2,4-dione]", "values": [{"measurement": "EC50", "result": 129, "unit": "nM"}]}, {"smiles": "O=C1S/C(=C\\c2ccc3c(cnn3Cc3ccc(Cl)cc3C(F)(F)F)c2)C(=O)N1CC(O)C1CCNCC1", "note": "(centres unmarked) [Compound 285, (5Z)-5-({1-[4-Chloro-2-(trifluoromethyl)benzyl]-1H-indazol-5-yl}methylidene)-3-(2-hydroxy-2-piperidin-4-ylethyl)-1,3-thiazolidine-2,4-dione]", "values": [{"measurement": "EC50", "result": 38, "unit": "nM"}]}]}
